Assay results reported in patent US20100227853A1, “INHIBITORS OF CYCLIC AMP PHOSPHODIESTERASES” (Trustees of Boston College, priority 2008, published 2010).

molecular target: T1, PDE4A1 (Mus musculus, UniProt O89084); test: 5FOA growth assay (high throughput screen, ED50) in fission yeast strain expressing PDE4A1; type: cell-based; details: 2 uM
T1 construct: targets used in the assays are full-length proteins (as opposed to simply the catalytic domain); expressed in transfected cells; host or cells: Schizosaccharomyces pombe, PDE gene integrated in place of cgs2
T1 sequence (O89084 1-610 isoform O89084-2): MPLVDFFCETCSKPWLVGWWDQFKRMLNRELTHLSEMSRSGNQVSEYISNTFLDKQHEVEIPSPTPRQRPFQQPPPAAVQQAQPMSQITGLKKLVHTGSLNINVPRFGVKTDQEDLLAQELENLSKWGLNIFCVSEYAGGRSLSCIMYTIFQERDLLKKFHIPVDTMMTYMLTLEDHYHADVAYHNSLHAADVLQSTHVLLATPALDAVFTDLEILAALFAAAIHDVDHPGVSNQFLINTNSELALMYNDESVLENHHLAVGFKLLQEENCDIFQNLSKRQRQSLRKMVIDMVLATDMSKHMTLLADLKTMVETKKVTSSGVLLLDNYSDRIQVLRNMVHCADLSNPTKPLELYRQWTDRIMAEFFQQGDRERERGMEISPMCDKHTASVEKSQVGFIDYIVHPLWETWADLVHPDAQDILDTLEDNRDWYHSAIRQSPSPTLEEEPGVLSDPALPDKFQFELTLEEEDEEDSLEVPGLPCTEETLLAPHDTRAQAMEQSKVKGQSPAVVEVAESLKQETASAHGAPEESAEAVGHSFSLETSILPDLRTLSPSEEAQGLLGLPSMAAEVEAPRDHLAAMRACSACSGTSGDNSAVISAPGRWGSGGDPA
Procedure, shortened: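 Fission yeast strains carrying mouse PDE4A1 or PDE4B3 and an fbp1-ura4 reporter were pregrown in EMM with 0.5–2.5 mM cAMP, then seeded at 0.5–4×10^5 cells/ml in 5FOA medium with compound. Growth was read as OD600 after 48 h at 30° C; composite Z scores were derived.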

| SMILES | 2 Assay (2 uM), 4A1 |
| --- | --- |
| COC(=O)C1=C(C)N(c2ccccc2Cl)C(=O)/C1=C\c1cccs1 [Compound 27] | 17.41 |
| COC(=O)C1=C(C)N(C2CCCCC2)C(=O)/C1=C\c1cccs1 [Compound 22] | 27.01 |
| N#Cc1sc2sc(C#N)c(-c3ccco3)c2c1N [Compound 30] | 4.56 |

same assay, conditions: 2 uM; PDE 4A1

| SMILES | 2 Assay (2 uM), 4A1 |
| --- | --- |
| Cc1ccc2c(c1)CCC1CC(=O)CC[C@]21C (stereo partly drawn) [Compound 2158J12] | 2.18 |
| COc1ccc2c(c1)[C@@]1(C)CCC[C@](C)(CO)C1CC2 (stereo partly drawn) [Compound 2067M03] | 6.63 |

same assay, conditions: 20 uM; PDE 4A1

| SMILES | 1 Assay (20 uM) 4A1 |
| --- | --- |
| CCc1ccc2c(c1)c1nc3ccccc3nc1n2CC [2015, P06] | 23.52 ND ND ND ND |
| c1ccc(CCn2c3ccccc3c3nc4ccccc4nc32)cc1 [2019, G03] | 36.37 ND ND ND ND |
| CCCCn1c2ccccc2c2nc3ccccc3nc21 [2013, I20] | 80.55 ND ND ND ND |
| CC(C)Cn1c2ccc(Br)cc2c2nc3ccccc3nc21 [2015, L04] | 13.51 ND ND ND ND |
| C=Cn1c2ccccc2c2nc3ccccc3nc21 [2033, H06] | 29.62 ND ND ND ND |
| Cc1ccc2c(c1)CCC1CC(=O)CC[C@]21C (stereo partly drawn) [Compound 2158J12] | 81.97 |
| Cc1ccc2c(c1)c1nc3ccccc3nc1n2C(C)C [Compound 41] | 106.90 |
| C=CCn1c2ccc(Br)cc2c2nc3ccccc3nc21 [2017, C18] | 49.17 ND ND ND ND |
| COc1ccc2c(c1)[C@@]1(C)CCC[C@](C)(CO)C1CC2 (stereo partly drawn) [Compound 2067M03] | 11567 |

same assay, conditions: high throughput 5FOA growth screen; greater than 8.53 = statistically-significant inhibitor

| SMILES | Composite Z score, PDE4A1 |
| --- | --- |
| Cc1nc(NCCc2ccccc2)c2c3c(sc2n1)CCCC3 [Compound 2008G09] | 0.1429 |
| Cc1c(C(=O)NCCC(C)C)sc2ncnc(N3CCOCC3)c12 [Compound 2040F13] | 3.5005 |
| CCOC(CNc1nc(C)nc2sc3c(c12)CCCC3)OCC [Compound 2040D04] | 3.1355 |
| Cc1c(C(=O)N2CCCCCC2)sc2ncnc(N3CCN(c4ccccc4)CC3)c12 [Compound 2041I21] | 0.2744 |
| COc1cc(OC)c(NC(=O)c2sc3ncnc(N4CCCCC4C)c3c2C)cc1Cl (stereo not drawn) [Compound 2040J10] | 3.0133 |
| CCNc1nc(SCC(=O)NC(=O)NCc2ccccc2)nc2sc3c(c12)CCN(C)C3 [Compound 2054N05] | −0.307 |
| CCC(C)NC(=O)c1sc2nc(C)nc(N(C)c3ccc(C(C)C)cc3)c2c1C (stereo not drawn) [Compound 2041K04] | 11.659 |
| CCNc1nc(SCC(=O)OCC)nc2sc3c(c12)CCC(C)C3 (stereo not drawn) [Compound 2053H16] | 3.7863 |
| Cc1sc2ncnc(Nc3ccccc3)c2c1C [BC64] | 24.925 |
| CCN(CC)c1ncnc2sc3c(c12)CCCC3 [BC44] | 22.267 |
| CCOC(=O)c1sc2nc(C)nc(N3CCC(C)CC3)c2c1C [Compound 2007D06] | −0.396 |
| Cc1c(C(=O)N(C)Cc2ccccc2)sc2ncnc(N3CCN(c4ccccc4)CC3)c12 [Compound 2041G21] | −0.629 |
| CCOC(=O)c1sc2nc(Cc3ccccc3)nc(NCCC3CCCCC3)c2c1C [Compound 2040F07] | 3.8961 |
| CC1CC(=O)N(c2ncnc3sc4c(c23)CCCC4)N1 (stereo not drawn) [2054 E16] | 0.2389 |
| COc1ccc(CCNc2ncnc3sc4c(c23)CCCC4)cc1 [Compound 2012B19] | 32.257 |
| c1nc(NCCCN2CCOCC2)c2c3c(sc2n1)CCCC3 [Compound 2051N22] | 1.1862 |
| COc1ccccc1CNC(=O)c1sc2ncnc(N3CCN(c4ccccc4F)CC3)c2c1C [2041 E21] | 1.9156 |
| CCOC(=O)c1ccccc1NC(=O)c1sc2nc(C)nc(N(CC)CC)c2c1C [Compound 2040P12] | 12.157 |
| CCC1CCc2c(sc3ncnc(N4CCOCC4)c23)C1 (stereo not drawn) [BC33] | 50.594 |
| Cc1c(C(=O)Nc2ccc(F)cc2F)sc2ncnc(N(C)c3ccccc3)c12 [Compound 58-9] | 25.972 |

| SMILES | Composite Z score, PDE4A1 |
| --- | --- |
| Cc1nc(N2CCCCC2)c2c(C)c(C(=O)Nc3cccc(C(F)(F)F)c3)sc2n1 [Compound 2040F10] | 11.225 |
| O=C(O)CCNc1ncnc2sc3c(c12)CCCC3 [Compound 2012O16] | 2.8 |
| CC(C)CC(Nc1ncnc2sc3c(c12)CCC3)C(=O)O (stereo not drawn) [Compound 2012H20] | 0.407 |
| CCN(CC)c1nc(C)nc2sc(C(=O)N3CCCCCC3)c(C)c12 [Compound 2040N12] | 7.3705 |
| Cc1c(C(=O)Nc2ccc(F)cc2F)sc2ncnc(N3CCC(C)CC3)c12 [BC58] | 34.335 |
| CNc1nc(=S)[nH]c2sc3c(c12)CCCC3 [2054 E08] | −1.088 |
| O=C(/C=C/c1ccccc1)Nc1ncnc2sc3c(c12)CCC3 [Compound 2008K11] | −1.395 |
| c1csc(CCNc2ncnc3sc4c(c23)CCC4)c1 [Compound 2005M12] | −1.628 |
| COc1ccc(NC(=O)c2sc3nc(C)nc(N(C)c4ccc(C(C)C)cc4)c3c2C)c(OC)c1 [Compound 2041I04] | 5.2983 |
| Cc1c(C(=O)NCCC2CCCCC2)sc2ncnc(N3CCCCC3C)c12 (stereo not drawn) [Compound 2040H10] | 14.925 |
| Cc1cc(C)c(C)c(S(=O)(=O)N2CCN(c3ncnc4sc5c(c34)CCCC5)CC2)c1C [Compound 2012L13] | 1.67 |
| CCCCN(CC)C(=O)c1sc2ncnc(N3CCN(c4ccc(OC)cc4)CC3)c2c1C [Compound 2007H06] | 0.0978 |
| CCN(CC)c1nc(C)nc2sc(C(=O)Nc3cc(Cl)ccc3OC)c(C)c12 [Compound 2040L12] | 8.6742 |
| OCCNc1ncnc2sc3c(c12)CCCC3 [Compound 2051H22] | 2.4965 |
| Cc1nc(N2CCC(C)CC2)c2c(C)c(C(=O)N3CCN(c4ccc(F)cc4)CC3)sc2n1 [Compound 2040N10] | 12.024 |
| CCOC(=O)c1sc2nc(C)nc(N(C)Cc3ccccc3)c2c1C [Compound 2007L04] | 0.6949 |
| COc1cccc(NC(=O)c2sc3ncnc(N4CCc5ccccc5C4)c3c2C)c1 [Compound 2041K21] | 19.619 |
| O=C(Nc1ncnc2sc3c(c12)CCCCC3)c1ccc(F)cc1 [Compound 2012F09] | 34.225 |
| CCN(CC)c1ncnc2sc(C(=O)N(C)C3CCCCC3)c(C)c12 [Compound 2040J12] | 7.0857 |
| CCNc1nc(SCc2ccc(Cl)cc2)nc2sc3c(c12)CCN(C)C3 [Compound 2054P05] | 2.3863 |

same assay, conditions: value marked (m); OD600 0.6; read-out: ED50 for 5FOA growth assays, PDE4A1 (m)

| SMILES | EC50 [µM] |
| --- | --- |
| Cc1sc2ncnc(Nc3ccccc3)c2c1C [BC64] | 20 |
| CCC1CCc2c(sc3ncnc(N4CCOCC4)c23)C1 (stereo not drawn) [BC33] | 23 |

same assay, conditions: value marked (r); OD600 0.6; read-out: ED50 for 5FOA growth assays, PDE4A1 (r)

| SMILES | EC50 [µM] |
| --- | --- |
| CCC1CCc2c(sc3ncnc(N4CCOCC4)c23)C1 (stereo not drawn) [BC33] | 28 |
